Source: patent publication US10730872B2, “Pesticidally active heterocyclic derivatives with sulphur containing sustitutents” (SYNGENTA PARTICIPATIONS AG, priority 2015, dated 2020)

Tests used:
Assay type in all cases: in vivo
Spodoptera littoralis [1] = test: Spodoptera littoralis (Egyptian Cotton Leaf Worm), sprayed cotton leaf discs; conditions: foliar, 72 h, application rate of 200 ppm, L1 larvae, 3 days after infestation
Summary of the method: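 Cotton leaf discs on agar sprayed with aqueous dilutions of 10,000 ppm DMSO stocks, dried, then infested with five L1 larvae. Mortality, anti-feeding and growth inhibition scored against untreated discs 3 days after infestation. Control recorded when any one category exceeds the untreated sample.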

[2] = system: Frankliniella occidentalis; test: Frankliniella occidentalis (Western Flower Thrips): Feeding/Contact Activity; conditions: foliar, 168 h, application rate of 200 ppm, sprayed sunflower leaf discs, population of mixed ages, 7 days after infestation
Experimental: Sunflower leaf discs were placed on agar in 24-well microtiter plates and sprayed with aqueous test solutions prepared from 10,000 DMSO stock solutions. After drying the leaf discs were infested with a Frankliniella population of mixed ages. The samples were assessed for mortality 7 days after infestation.

Euschistus heros = Euschistus heros (Neotropical Brown Stink Bug); conditions: 120 h, application rate of 200 ppm, sprayed soybean leaves, N2 nymphs, 5 days after infestation, read-out: effect in at least one of the two categories (mortality or growth inhibition)
Experimental: Soybean leaves on agar in 24-well microtiter plates were sprayed with aqueous test solutions prepared from 10,000 ppm DMSO stock solutions. After drying the leaves were infested with N2 nymphs. The samples were assessed for mortality and growth inhibition in comparison to untreated samples 5 days after infestation.

Spodoptera littoralis [3] = test: Spodoptera littoralis (Egyptian Cotton Leaf Worm), uptake by lettuce roots from agar; conditions: 144 h, test rate of 12.5 ppm, mixed with agar, absorbed by lettuce roots, Spodoptera eggs, 6 days after infestation, read-out: effect in at least one of the three categories (mortality, anti-feeding, or growth inhibition)
From the text: Test compounds were applied by pipette from 10,000 ppm DMSO stock solutions into 24-well plates and mixed with agar. Lettuce seeds were placed onto the agar and the multi well plate was closed by another plate which contained also agar. After 7 days the compound was absorbed by the roots and the lettuce grew into the lid plate. The lettuce leaves were then cut off into the lid plate. Spodoptera eggs were pipetted through a plastic stencil onto a humid gel blotting paper and the lid plate was closed with it. The samples were assessed for mortality, anti-feedant effect and growth inhibition in comparison to untreated samples 6 days after infestation.

Diabrotica balteata = Diabrotica balteata (Corn Root Worm); conditions: 96 h, application rate of 200 ppm, sprayed maize sprouts, L2 larvae, 4 days after infestation, read-out: effect in at least one of the two categories (mortality or growth inhibition)
Experimental: Maize sprouts placed onto an agar layer in 24-well microtiter plates were treated with aqueous test solutions prepared from 10,000 ppm DMSO stock solutions by spraying. After drying, the plates were infested with L2 larvae (6 to 10 per well). The samples were assessed for mortality and growth inhibition in comparison to untreated samples 4 days after infestation.

Bemisia tabaci = Bemisia tabaci (Cotton White Fly): Feeding/Contact Activity; conditions: foliar, 144 h, application rate of 200 ppm, sprayed cotton leaf discs, adult white flies, 6 days after incubation
Experimental: Cotton leaf discs were placed on agar in 24-well microtiter plates and sprayed with aqueous test solutions prepared from 10,000 ppm DMSO stock solutions. After drying the leaf discs were infested with adult white flies. The samples were checked for mortality 6 days after incubation.

Myzus persicae [4] = test: Myzus persicae (Green Peach Aphid): Feeding/Contact Activity; conditions: foliar, 144 h, application rate of 200 ppm, sprayed sunflower leaf discs, aphid population of mixed ages, 6 days after infestation
Experimental: Sunflower leaf discs were placed onto agar in a 24-well microtiter plate and sprayed with aqueous test solutions prepared from 10,000 ppm DMSO stock solutions. After drying, the leaf discs were infested with an aphid population of mixed ages. The samples were assessed for mortality 6 days after infestation.

Plutella xylostella = Plutella xylostella (Diamond Back Moth); conditions: 120 h, application rate of 200 ppm, artificial diet, L2 larvae, 5 days after infestation, read-out: effect in at least one of the two categories (mortality or growth inhibition)
Experimental: 24-well microtiter plates with artificial diet were treated with aqueous test solutions prepared from 10,000 ppm DMSO stock solutions by pipetting. After drying, the plates were infested with L2 larvae (10 to 15 per well). The samples were assessed for mortality and growth inhibition in comparison to untreated samples 5 days after infestation.

Myzus persicae [5] = test: Myzus persicae (Green Peach Aphid). Systemic Activity; conditions: 144 h, test rate of 24 ppm, roots of infested pea seedlings in test solution, 6 days
Experimental: Roots of pea seedlings infested with an aphid population of mixed ages were placed directly into aqueous test solutions prepared from 10,000 DMSO stock solutions. The samples were assessed for mortality 6 days after placing seedlings into test solutions.

Tetranychus urticae = Tetranychus urticae (Two-Spotted Spider Mite): Feeding/Contact Activity; conditions: foliar, 192 h, application rate of 200 ppm, sprayed bean leaf discs, mixed population (mobile stages), 8 days after infestation
Experimental: Bean leaf discs on agar in 24-well microtiter plates were sprayed with aqueous test solutions prepared from 10,000 ppm DMSO stock solutions. After drying the leaf discs were infested with a mite population of mixed ages. The samples were assessed for mortality on mixed population (mobile stages) 8 days after infestation.

Aedes aegypti = test: Aedes Aegypti (Yellow Fever Mosquito); conditions: 200 ppm in ethanol, dry deposit in 12 well plates, adult females, after 48 h and/or 24 h
Experimental: Test solutions, at an application rate of 200 ppm in ethanol, were applied to 12 well tissue culture plates. Once the deposits were dry, five, two to five day old adult female Aedes aegypti were added to each well, and sustained with a 10% sucrose solution in a cotton wool plug. Assessment of knockdown was made one hour after introduction, and mortality was assessed at 24 and 48 hours after introduction.

CCS(=O)(=O)c1cc(Cl)c(N)nc1-c1nc2cc(C(F)(F)F)n(C3CC3)c(=O)c2n1C [Compound A43, 2-(6-amino-5-chloro-3-ethylsulfonyl-2-pyridyl)-5-cyclopropyl-3-methyl-6-(trifluoromethyl)imidazo[4,5-c]pyridin-4-one]
≥ 80%: percent control (mortality, anti-feeding effect or growth inhibition) at 200 ppm (Spodoptera littoralis [1]) | mortality at 200 ppm [2] | percent effect (mortality or growth inhibition) at 200 ppm (Euschistus heros) | percent effect (mortality, anti-feeding or growth inhibition) at 12.5 ppm (Spodoptera littoralis [3]) | effect mortality or growth inhibition at 200 ppm (Diabrotica balteata) | mortality at 200 ppm (Bemisia tabaci) | mortality at 200 ppm (Myzus persicae [4]) | percent effect (mortality or growth inhibition) at 200 ppm (Plutella xylostella) | mortality at 24 ppm (Myzus persicae [5])

CCS(=O)(=O)c1cc(C2CC2)c(N)nc1-c1nc2cc(C(F)(F)F)n(C3CC3)c(=O)c2n1C [Compound A48, 2-(6-amino-5-cyclopropyl-3-ethylsulfonyl-2-pyridyl)-5-cyclopropyl-3-methyl-6-(trifluoromethyl)imidazo[4,5-c]pyridin-4-one]
≥ 80%: percent control (mortality, anti-feeding effect or growth inhibition) at 200 ppm (Spodoptera littoralis [1]) | mortality at 200 ppm [2] | percent effect (mortality or growth inhibition) at 200 ppm (Euschistus heros) | effect mortality or growth inhibition at 200 ppm (Diabrotica balteata) | mortality at 200 ppm (Bemisia tabaci) | mortality at 200 ppm (Myzus persicae [4]) | percent effect (mortality or growth inhibition) at 200 ppm (Plutella xylostella) | mortality at 200 ppm (Tetranychus urticae) | mortality at 24 ppm (Myzus persicae [5])

CCS(=O)(=O)c1cc(C#N)c(N)nc1-c1nc2cc(C(F)(F)F)n(C3CC3)c(=O)c2n1C [Compound A50, 2-(6-amino-5-cyano-3-ethylsulfonyl-2-pyridyl)-5-cyclopropyl-3-methyl-6-(trifluoromethyl)imidazo[4,5-c]pyridin-4-one]
≥ 80%: percent control (mortality, anti-feeding effect or growth inhibition) at 200 ppm (Spodoptera littoralis [1]) | mortality at 200 ppm [2] | percent effect (mortality or growth inhibition) at 200 ppm (Euschistus heros) | percent effect (mortality, anti-feeding or growth inhibition) at 12.5 ppm (Spodoptera littoralis [3]) | effect mortality or growth inhibition at 200 ppm (Diabrotica balteata) | mortality at 200 ppm (Myzus persicae [4]) | percent effect (mortality or growth inhibition) at 200 ppm (Plutella xylostella) | mortality at 24 ppm (Myzus persicae [5])

CCn1c(C(F)(F)F)cc2nc(-c3nc(N(C)C(=O)C4CC4)ccc3S(=O)(=O)CC)n(C)c2c1=O [Compound A10, N-[6-[5-ethyl-3-methyl-4-oxo-6-(trifluoromethyl)imidazo[4,5-c]pyridin-2-yl]-5-ethylsulfonyl-2-pyridyl]-N-methyl-cyclopropanecarboxamide]
≥ 80%: percent control (mortality, anti-feeding effect or growth inhibition) at 200 ppm (Spodoptera littoralis [1]) | mortality at 200 ppm [2] | percent effect (mortality or growth inhibition) at 200 ppm (Euschistus heros) | percent effect (mortality, anti-feeding or growth inhibition) at 12.5 ppm (Spodoptera littoralis [3]) | effect mortality or growth inhibition at 200 ppm (Diabrotica balteata) | mortality at 200 ppm (Bemisia tabaci) | mortality at 200 ppm (Myzus persicae [4]) | percent effect (mortality or growth inhibition) at 200 ppm (Plutella xylostella) | mortality at 24 ppm (Myzus persicae [5])

CCn1c(C(F)(F)F)cc2nc(-c3ncc(N(C)C4CC4)cc3S(=O)(=O)CC)n(C)c2c1=O [Compound A11, 2-[5-[cyclopropyl(methyl)amino]-3-ethylsulfonyl-2-pyridyl]-5-ethyl-3-methyl-6-(trifluoromethyl)imidazo[4,5-c]pyridin-4-one]
≥ 80%: percent control (mortality, anti-feeding effect or growth inhibition) at 200 ppm (Spodoptera littoralis [1]) | mortality at 200 ppm [2] | percent effect (mortality or growth inhibition) at 200 ppm (Euschistus heros) | percent effect (mortality, anti-feeding or growth inhibition) at 12.5 ppm (Spodoptera littoralis [3]) | pest or weed control at 200 ppm (Aedes aegypti) | effect mortality or growth inhibition at 200 ppm (Diabrotica balteata) | mortality at 200 ppm (Myzus persicae [4]) | percent effect (mortality or growth inhibition) at 200 ppm (Plutella xylostella)

CCn1c(C(F)(F)F)cc2nc(-c3nc(NC(=O)C4CC4)ccc3S(=O)(=O)CC)n(C)c2c1=O [Compound A8, N-[6-[5-ethyl-3-methyl-4-oxo-6-(trifluoromethyl)imidazo[4,5-c]pyridin-2-yl]-5-ethylsulfonyl-2-pyridyl]cyclopropanecarboxamide]
≥ 80%: percent control (mortality, anti-feeding effect or growth inhibition) at 200 ppm (Spodoptera littoralis [1]) | mortality at 200 ppm [2] | percent effect (mortality or growth inhibition) at 200 ppm (Euschistus heros) | percent effect (mortality, anti-feeding or growth inhibition) at 12.5 ppm (Spodoptera littoralis [3]) | effect mortality or growth inhibition at 200 ppm (Diabrotica balteata) | mortality at 200 ppm (Bemisia tabaci) | mortality at 200 ppm (Myzus persicae [4]) | percent effect (mortality or growth inhibition) at 200 ppm (Plutella xylostella)

CCn1c(C(F)(F)F)cc2nc(-c3nc(N)c(Cl)cc3S(=O)(=O)CC)n(C)c2c1=O [Compound A38, 2-(6-amino-5-chloro-3-ethylsulfonyl-2-pyridyl)-5-ethyl-3-methyl-6-(trifluoromethyl)imidazo[4,5-c]pyridin-4-one]
≥ 80%: percent control (mortality, anti-feeding effect or growth inhibition) at 200 ppm (Spodoptera littoralis [1]) | percent effect (mortality or growth inhibition) at 200 ppm (Euschistus heros) | percent effect (mortality, anti-feeding or growth inhibition) at 12.5 ppm (Spodoptera littoralis [3]) | pest or weed control at 200 ppm (Aedes aegypti) | effect mortality or growth inhibition at 200 ppm (Diabrotica balteata) | mortality at 200 ppm (Bemisia tabaci) | mortality at 200 ppm (Myzus persicae [4]) | percent effect (mortality or growth inhibition) at 200 ppm (Plutella xylostella)

CCS(=O)(=O)c1ccc(NC2CC2)nc1-c1nc2cc(C(F)(F)F)n(C)c(=O)c2n1C [Compound A2, 2-[6-(cyclopropylamino)-3-ethylsulfonyl-2-pyridyl]-3,5-dimethyl-6-(trifluoromethyl)imidazo[4,5-c]pyridin-4-one]
≥ 80%: percent control (mortality, anti-feeding effect or growth inhibition) at 200 ppm (Spodoptera littoralis [1]) | percent effect (mortality or growth inhibition) at 200 ppm (Euschistus heros) | percent effect (mortality, anti-feeding or growth inhibition) at 12.5 ppm (Spodoptera littoralis [3]) | pest or weed control at 200 ppm (Aedes aegypti) | effect mortality or growth inhibition at 200 ppm (Diabrotica balteata) | mortality at 200 ppm (Myzus persicae [4]) | percent effect (mortality or growth inhibition) at 200 ppm (Plutella xylostella) | mortality at 200 ppm (Tetranychus urticae) | mortality at 24 ppm (Myzus persicae [5])

CCn1c(C(F)(F)F)cc2nc(-c3nc(N)ccc3S(=O)(=O)CC)n(C)c2c1=O [Compound A6, 2-(6-amino-3-ethylsulfonyl-2-pyridyl)-5-ethyl-3-methyl-6-(trifluoromethyl)imidazo[4,5-c]pyridin-4-one]
≥ 80%: percent control (mortality, anti-feeding effect or growth inhibition) at 200 ppm (Spodoptera littoralis [1]) | percent effect (mortality or growth inhibition) at 200 ppm (Euschistus heros) | percent effect (mortality, anti-feeding or growth inhibition) at 12.5 ppm (Spodoptera littoralis [3]) | pest or weed control at 200 ppm (Aedes aegypti) | effect mortality or growth inhibition at 200 ppm (Diabrotica balteata) | mortality at 200 ppm (Bemisia tabaci) | mortality at 200 ppm (Myzus persicae [4]) | percent effect (mortality or growth inhibition) at 200 ppm (Plutella xylostella) | mortality at 24 ppm (Myzus persicae [5])

CCn1c(C(F)(F)F)cc2nc(-c3nc(NC4CC4)ccc3S(=O)(=O)CC)n(C)c2c1=O [Compound A30, 2-[6-(cyclopropylamino)-3-ethylsulfonyl-2-pyridyl]-5-ethyl-3-methyl-6-(trifluoromethyl)imidazo[4,5-c]pyridin-4-one]
≥ 80%: percent control (mortality, anti-feeding effect or growth inhibition) at 200 ppm (Spodoptera littoralis [1]) | percent effect (mortality or growth inhibition) at 200 ppm (Euschistus heros) | pest or weed control at 200 ppm (Aedes aegypti) | effect mortality or growth inhibition at 200 ppm (Diabrotica balteata) | mortality at 200 ppm (Bemisia tabaci) | mortality at 200 ppm (Myzus persicae [4]) | percent effect (mortality or growth inhibition) at 200 ppm (Plutella xylostella) | mortality at 200 ppm (Tetranychus urticae) | mortality at 24 ppm (Myzus persicae [5])
